Laboratory results as given in US11225480B2, “Malic enzyme inhibitors” (SUN PHARMA ADVANCED RESEARCH COMPANY LTD, priority 2019, dated 2022).
Structures can show the parent of a compound that is named as a salt.

Target: T1, human ME3 enzyme (Homo sapiens, UniProt Q16798)
T1 sequence (Q16798 1-604): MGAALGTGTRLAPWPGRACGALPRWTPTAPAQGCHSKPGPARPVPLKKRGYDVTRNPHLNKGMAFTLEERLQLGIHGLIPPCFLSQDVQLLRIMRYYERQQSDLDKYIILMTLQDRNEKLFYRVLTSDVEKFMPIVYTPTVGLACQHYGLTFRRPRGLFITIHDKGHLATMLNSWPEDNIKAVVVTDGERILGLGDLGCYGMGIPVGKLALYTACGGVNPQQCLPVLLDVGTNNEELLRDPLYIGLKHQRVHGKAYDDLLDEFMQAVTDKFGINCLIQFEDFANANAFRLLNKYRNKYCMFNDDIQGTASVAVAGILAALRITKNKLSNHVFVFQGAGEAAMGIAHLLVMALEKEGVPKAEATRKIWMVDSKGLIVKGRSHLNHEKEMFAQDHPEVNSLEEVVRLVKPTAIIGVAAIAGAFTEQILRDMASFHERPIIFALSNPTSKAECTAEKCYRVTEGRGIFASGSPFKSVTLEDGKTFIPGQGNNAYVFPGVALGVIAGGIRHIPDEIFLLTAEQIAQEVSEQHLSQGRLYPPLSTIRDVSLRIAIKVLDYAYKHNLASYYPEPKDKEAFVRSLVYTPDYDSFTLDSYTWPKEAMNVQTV
Test: ME3 inhibition assay (diaphorase/resazurin coupled fluorescence)
Format: biochemical
Conditions: 10 μM compound concentration; read-out: Malic Enzyme 3 % inhibition (10 μM)
Protocol: ME3 catalyzes the oxidative decarboxylation of malate to pyruvate with conversion of the co-factor β-NADP+ to NADPH. In the fluorescence assay, a coupled reaction is set up wherein an enzyme, Diaphorase, utilizes NADPH generated by ME3, to convert the dye resazurin to a fluorescent molecule resorufin.
The enzyme activity inhibition assay is set up in a 200 μL final reaction volume in a 96-well plate. As per the experimental design, 2 μL of the test compounds at 100× the desired concentration (10 μM) in DMSO were added to the respective wells with 178 μL of assay buffer (50 mM Tris-HCl pH 7.5, 10 mM MnCl2, 3 mM L-malate, 50 μM Resazurin and 0.025 mg/ml Diapharose). The 96-well plate was incubated on a plate shaker at room temperature for 15 minutes protected from light. The well contents were gently mixed by adding 10 μL of 20 nM human ME3 enzyme to the wells and the plate was incubated on a shaker at room temperature for 5 minutes protected from light. Suitable enzyme only and no enzyme controls were included in the experiment. The enzyme reaction was started by adding 10 μL of 1 mM D-NADP+. The reaction was gently mixed and the plate was initially left on a shaker at room temperature for ˜7 minutes protected from light. Later, the plate was incubated without shaking at room temperature for 3 hours. At the end of 3 hours, the fluorescence of the wells was measured at excitation 540 nm and emission 600 nm.

Structure (SMILES) | inhibition at 10 µM [%]
O=C(O)C1C2CCC(O2)C1C(=O)N1CCN(c2ccc(O)cn2)CC1 (stereo not drawn) [I.105, 3-[4-(5-Hydroxy-pyridin-2-yl)-piperazine-1-carbonyl]-7-oxa-bicyclo-[2.2.1]heptane-2-carboxylic acid] | > 90
O=C(C(=O)N1CCN(c2ccc(O)cn2)CC1)c1c[nH]c2ccccc12 [I.106, 1-[4-(5-Hydroxy-pyridin-2-yl)-piperazin-1-yl]-2-(1H-indol-3-yl)-ethane-1,2-dione] | > 90
O=C(c1cc2ccccc2c2ccccc12)N1CCN(c2ccc(O)cc2)CC1 [I.22, [4-(4-Hydroxy-phenyl)-piperazin-1-yl]-phenanthren-9-yl-methanone] | > 90
O=C(c1cccc2[nH]ccc12)N1CCN(c2ccc(O)cc2)CC1 [I.30, [4-(4-Hydroxy-phenyl)-piperazin-1-yl]-(1H-indol-4-yl)-methanone] | > 90
CCCCOc1ccc2[nH]cc(C(=O)N3CCN(c4ccc(O)cc4)CC3)c2c1 [I.14, (5-Butoxy-1H-indol-3-yl)-[4-(4-hydroxy-phenyl)-piperazin-1-yl]-methanone] | > 90
O=C(c1n[nH]c2ccccc12)N1CCN(c2ccc(O)cc2)CC1 [I.8, [4-(4-Hydroxy-phenyl)-piperazin-1-yl]-(1H-indazol-3-yl)-methanone] | > 90
O=C(CCc1ccc2ccccc2c1)N1CCN(c2ccc(O)cc2)CC1 [I.23, 1-[4-(4-Hydroxy-phenyl)-piperazin-1-yl]-3-naphthalen-2-yl-propan-1-one] | > 90
Cc1ccc(CCC(=O)N2CCN(c3ccc(O)cn3)CC2)cc1 [I.110, 1-[4-(5-Hydroxy-pyridin-2-yl)-piperazin-1-yl]-3-p-tolyl-propan-1-one] | > 90
O=C(Cc1ccc(F)cc1F)N1CCN(c2ccc(O)cn2)CC1 [I.91, 2-(2,4-Difluoro-phenyl)-1-[4-(5-hydroxy-pyridine-2-yl)-piperazin-1-yl]-ethanone] | > 90
O=C(c1cccn2ccnc12)N1CCN(c2ccc(O)cc2)CC1 [I.29, [4-(4-Hydroxy-phenyl)-piperazin-1-yl]-imidazo[1,2-a]124yridine-8-yl-methanone] | > 90
Cc1ccc(C(=O)N2CCN(c3ccc(O)cn3)CC2)cc1Nc1nccc(-c2cccnc2)n1 [I.85, [4-(5-hydroxy-pyridin-2-yl)-piperazin-1-yl]-[4-methyl-3-(4-pyridin-3-yl-pyrimidin-2-ylamino)-phenyl]-methanone] | > 90
O=C(c1ccnc(-c2ccccc2)c1)N1CCN(c2ccc(O)cc2)CC1 [I.34, [4-(4-Hydroxy-phenyl)-piperazin-1-yl]-(2-phenyl-4-pyridyl)-methanone] | > 90
O=C(c1ccnc(N2CCOCC2)c1)N1CCN(c2ccc(O)cc2)CC1 [I.35, [4-(4-Hydroxy-phenyl)-piperazin-1-yl]-(2-morpholino-4-pyridyl)-methanone] | > 90
CCCCOc1ccc(/C=C/C(=O)N2CCN(c3ccc(O)cc3)CC2)cc1 [I.12, 3-(4-Butoxy-phenyl)-1-[4-(4-hydroxy-phenyl)-piperazin-1-yl]-propenone] | > 90
O=C(/C=C/C1CCCCC1)N1CCN(c2ccc(O)cn2)CC1 [I.120, (E)-3-Cyclo-hexyl-1-[4-(5-hydroxy-2-pyridyl)-piperazin-1-yl]prop-2-en-1-one] | > 90
O=C(C(c1ccccc1)N1CCOCC1)N1CCN(c2ccc(O)cn2)CC1 (stereo not drawn) [I.117, 1-[4-(5-hydroxy-2-pyridyl)piperazin-1-yl]-2-morpholino-2-phenyl-ethanone] | > 90
COc1ccc(CCC(=O)N2CCN(c3ccc(O)cn3)CC2)cc1 [I.101, 3-(4-Methoxy-phenyl)-1-[4-(5-hydroxy-pyridin-2-yl)-piperazin-1-yl]-propan-1-one hydrochloride] | > 90
CC(C)Cc1ccc(CCC(=O)N2CCN(c3ccc(O)cn3)CC2)cc1 [I.90, 1-[4-(5-Hydroxy-pyridin-2-yl)-piperazin-1-yl]-3-(4-isobutyl-phenyl)-propan-1-one] | > 90
